The supplement of paper PMC9663587

Columns and labels:
Experiment in all cases: area over the GR curve, 72 h; higher = more effect;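 note: Dye Drop or Deep Dye Drop imaging of viable cells in 384-well plates (Hoechst nuclei, LIVE/DEAD dye), nine half-log doses, GR normalized to DMSO controls and time-zero plates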
BT549 = tested on: BT549
SKBR3 = tested on: SKBR3
EFM19 = tested on: EFM19
MDAMB468 = tested on: MDAMB468
PDX1328 = tested on: PDX1328
AU565 = tested on: AU565
MDAMB231 = tested on: MDAMB231
HCC1569 = tested on: HCC1569
MDAMB415 = tested on: MDAMB415
HCC70 = tested on: HCC70
MDAMB453 = tested on: MDAMB453
HCC1954 = tested on: HCC1954

| SMILES | area over the GR curve (BT549) | area over the GR curve (SKBR3) | area over the GR curve (EFM19) | area over the GR curve (MDAMB468) | area over the GR curve (PDX1328) | area over the GR curve (AU565) | area over the GR curve (MDAMB231) | area over the GR curve (HCC1569) | area over the GR curve (MDAMB415) | area over the GR curve (HCC70) | area over the GR curve (MDAMB453) | area over the GR curve (HCC1954) |
| --- | --- | --- | --- | --- | --- | --- | --- | --- | --- | --- | --- | --- |
| CC(C)NC[C@@H](C(=O)N1CCN(c2ncnc3c2[C@H](C)C[C@H]3O)CC1)c1ccc(Cl)cc1 [Ipatasertib/GDC0068] (max 10 µM) | 0.173 GR | 0.152 GR | 0.185 GR | 0.223 GR | -0.0202 GR | 0.147 GR | 0.0065 GR | 0.227 GR | 0.758 GR | 0.488 GR | 0.27 GR | 0.214 GR |
| C=CC(=O)Nc1ccc(C(=O)Nc2[nH]nc3c2CN(C(=O)N[C@H](CN(C)C)c2ccccc2)C3(C)C)cc1 [YKL-5-124] (max 10 µM) | 0.869 GR | 0.965 GR | 0.8 GR | 1.11 GR | 0.532 GR | 1 GR | 0.878 GR | 0.736 GR | 0.664 GR | 1.46 GR | 0.834 GR | 0.969 GR |
| CCc1cnn2c(NCc3ccc[n+]([O-])c3)cc(N3CCCC[C@H]3CCO)nc12 (max 1 µM) | 0.591 GR | 0.835 GR | 0.459 GR | 0.568 GR | 0.656 GR | 0.857 GR | 0.663 GR | 0.541 GR | 0.55 GR | 0.803 GR | 0.578 GR | 0.629 GR |
| CC(=O)c1c(C)c2cnc(Nc3ccc(N4CCN(CCOCCOCCOCCNC(=O)COc5cccc6c5C(=O)N(C5CCC(=O)NC5=O)C6=O)CC4)cn3)nc2n(C2CCCC2)c1=O (stereo unspecified) [BSJ-03-123] (max 10 µM) | 0.116 GR | 0.338 GR | 0.318 GR | 0.265 GR | 0.31 GR | 0.34 GR | 0.353 GR | 0.183 GR | 0.332 GR | 0.181 GR | 0.267 GR | 0.33 GR |
| CN(C)C/C=C/C(=O)Nc1ccc(O[C@@H]2CCC[C@@H](Nc3ncc(Cl)c(-c4c[nH]c5ccccc45)n3)C2)cc1 [BSJ-01-175] (max 10 µM) | 0.433 GR | 1.04 GR | 0.3 GR | 0.892 GR | 0.898 GR | 1.06 GR | 0.991 GR | 0.907 GR | 0.676 GR | 1.07 GR | 1.08 GR | 0.66 GR |
| Nc1ccc(-c2ccc3ncc4ccc(=O)n(-c5cccc(C(F)(F)F)c5)c4c3c2)cn1 [Torin2] (max 1 µM) | 0.49 GR | 0.734 GR | 0.501 GR | 0.437 GR | 0.643 GR | 0.657 GR | 0.386 GR | 0.487 GR | 0.627 GR | 0.645 GR | 0.679 GR | 0.55 GR |
| CC[C@@H]1C(=O)N(C)c2cnc(Nc3ccc(C(=O)N[C@H]4CC[C@H](N5CCN(CC6CC6)CC5)CC4)cc3OC)nc2N1C(C)C [Volasertib/BI6727] (max 1 µM) | 0.568 GR | 0.694 GR | 0.741 GR | 0.928 GR | 0.842 GR | 0.855 GR | 0.584 GR | 0.375 GR | 0.546 GR | 0.579 GR | 0.488 GR | 0.611 GR |
| O=C1NC(=O)[C@@H](c2cn3c4c(cccc24)CCC3)[C@@H]1c1c[nH]c2ccccc12 [Tivantinib/ARQ197] (max 10 µM) | 0.344 GR | 0.479 GR | 0.361 GR | 0.49 GR | 0.528 GR | 0.577 GR | 0.323 GR | 0.278 GR | 0.213 GR | 0.474 GR | 0.404 GR | 0.544 GR |
| CN1CC[C@H](c2c(O)cc(O)c3c(=O)cc(-c4ccccc4Cl)oc23)[C@H](O)C1 [Flavopiridol] (max 1 µM) | 0.257 GR | 0.342 GR | 0.191 GR | 0.269 GR | 0.216 GR | 0.368 GR | 0.286 GR | 0.232 GR | 0.284 GR | 0.415 GR | 0.272 GR | 0.313 GR |
| Cc1nc(Nc2ncc(C(=O)Nc3c(C)cccc3Cl)s2)cc(N2CCN(CCO)CC2)n1 [Dasatinib] (max 10 µM) | 0.237 GR | -0.0183 GR | 0.685 GR | 0.143 GR | 0.819 GR | 0.155 GR | 0.647 GR | 0.483 GR | 0.272 GR | 1.06 GR | 0.0776 GR | 0.189 GR |
| Cc1nc(-c2cn3c(n2)-c2ccc(-c4cnn(C(C)(C)C(N)=O)c4)cc2OCC3)n(C(C)C)n1 [Taselisib/GDC0032] (max 10 µM) | 0.223 GR | 0.807 GR | 0.944 GR | 0.217 GR | 0.576 GR | 0.97 GR | 0.254 GR | 0.598 GR | 0.516 GR | 0.548 GR | 1.01 GR | 0.949 GR |
| Cc1nc(NC(=O)N2CCC[C@H]2C(N)=O)sc1-c1ccnc(C(C)(C)C(F)(F)F)c1 [Alpelisib/BYL719] (max 10 µM) | 0.0322 GR | 0.379 GR | 0.445 GR | 0.0301 GR | 0.241 GR | 0.472 GR | 0.0895 GR | 0.0913 GR | 0.0453 GR | 0.112 GR | 0.335 GR | 0.264 GR |
| COc1cc(N2CCN(C)CC2)ccc1Nc1ncc2c(n1)N(C)c1ccccc1C(=O)N2CC(F)(F)F [FMF-03-146-1] | 0.0127 GR | 0.0465 GR | 0.0185 GR | 0.0476 GR | 0.071 GR | 0.0771 GR | 0.0225 GR | -0.0612 GR | 0.0297 GR | -0.0097 GR | 0.0207 GR | 0.0296 GR |
